In brackets after ≈: the same amount, converted by molar mass.
Assays:
[1] = system: M. tuberculosis H37Rv (ATCC 27294); assay: Microplate Alamar Blue Assay (MABA), MIC against replicating M. tuberculosis; type: cell-based, Mycobacterium tuberculosis; settings: 7 days at 37 °C; for MIC: Mycobacterium tuberculosis, 168 h
[2] = Cytotoxicity against Vero cells (resazurin); settings: African green monkey
[3] = system: non-replicating M. tuberculosis H37Rv_LuxABCDE; assay: Low oxygen recovery assay (LORA), MIC against non-replicating M. tuberculosis; type: cell-based, Mycobacterium tuberculosis; settings: for MIC: Mycobacterium tuberculosis; for MIC / MIC against M. tuberculosis H37Rv, LORA: non-replicating M. tuberculosis H37Rv, low oxygen
[4] = system: Vero cells (ATCC CRL-1586); assay: Cytotoxicity against Vero cells (resazurin); settings: Vero cells, 72 h
[5] = system: Vero cells (ATCC CRL-1586); settings: African green monkey, 72 h
[6] = MIC = lowest concentration reducing fluorescence by 90%

## CC(=O)OC/C=C(\C)CCC=C(C)C [Compound 11, geranyl acetate]
[1]; [6]
  MIC: 88.6 µg/mL
[1]; […]
  MIC: > 20 µg/mL
[2]
  IC50 at 72 h: > 200 µg/mL
[3]
  MIC: > 100 µg/mL

## CC(=O)OC/C=C/CCCC/C=C/CO [Synthetic tsaokol A, tsaokol A]
[1]; [6]
  MIC: 1.4 µg/mL (≈ 6.59 µM)
[2]; Vero cells (ATCC CRL-1586)
  IC50 at 72 h: > 200 µg/mL
[4]
  Cytotoxicity against Vero Cells IC50: identical to those of the isolated tsaokol A (3)
[5]
  Vero cytotoxicity, percentage in parentheses after the IC50 bound: 10%

## (E)-1-acetyl-8-decene-1,10-diol [Compound 1]
[1]; [6]
  MIC against M. tuberculosis H37Rv, MABA: 10.2 µg/mL
[1]; […]
  MIC against M. tuberculosis H37Rv, MABA: lower than 10 µg/mL
[4]
  Cytotoxicity against Vero Cells IC50: > 200 µg/mL
[3]
  MIC against M. tuberculosis H37Rv, LORA: 61.5 µg/mL

## OC/C=C/CCCCCCCO [Compound 2, (E)-2-decene-1,10-diol]
[1]; [6]
  MIC: 29.7 µg/mL (≈ 172 µM)
[1]; […]
  MIC: > 20 µg/mL
[2]; Vero cells (ATCC CRL-1586)
  IC50 at 72 h: > 200 µg/mL
[5]
  Vero cytotoxicity, percentage in parentheses after the IC50 bound: 25%
[3]
  MIC: 95.4 µg/mL (≈ 554 µM)

## CCCCCCC/C=C/C=O [Compound 7, (E)-decenal]
[1]; [6]
  MIC: > 100 µg/mL
[3]
  MIC: > 100 µg/mL

## OC/C=C/CCCC/C=C/CO [Compound 5, (2E,8E)-2,8-decadiene-1,10-diol]
[1]; [6]
  MIC: 4.3 µg/mL (≈ 25.3 µM)
[1]; […]
  MIC: < 10 µg/mL
[2]; Vero cells (ATCC CRL-1586)
  IC50 at 72 h: 72.9 µg/mL (≈ 428 µM)
[3]
  MIC: 5.9 µg/mL (≈ 34.7 µM)

## (2E,8E)-1,10-diacetyl-2,8-decadiene-1,10-diol [Compound 4]
[1]; [6]
  MIC against M. tuberculosis H37Rv, MABA: 1.1 µg/mL
[1]; […]
  MIC against M. tuberculosis H37Rv, MABA: lower than 10 µg/mL
[4]
  Cytotoxicity against Vero Cells IC50: 143.6 µg/mL
[3]
  MIC against M. tuberculosis H37Rv, LORA: 21.6 µg/mL

## CCCCCCCCC/C=C/C(O)C(C)=O (stereo not drawn) [Compound 9, (E)-1-acetyl-2-dodecene-1-ol]
[1]; [6]
  MIC: > 100 µg/mL
[3]
  MIC: > 100 µg/mL

## CO[C@H]1/C=C/O[C@@]2(C)Oc3c(C)c(O)c4c(O)c(c(/C=N/N5CCN(C)CC5)c(O)c4c3C2=O)NC(=O)/C(C)=C\C=C\[C@H](C)[C@H](O)[C@@H](C)[C@@H](O)[C@@H](C)[C@H](OC(C)=O)[C@@H]1C [Rifampicin, reference compound]
[1]; [6]
  MIC: 0.025 µg/mL (≈ 0.0304 µM)
[2]; Vero cells (ATCC CRL-1586)
  IC50 at 72 h: > 100 µg/mL
[3]
  MIC: 0.14 µg/mL (≈ 0.17 µM)

## (2E,8E)-1-acetyl-2,8-decadiene-1,10-diol [Compound 3]
[1]; [6]
  MIC against M. tuberculosis H37Rv, MABA: 0.6 µg/mL
[1]; […]
  MIC against M. tuberculosis H37Rv, MABA: lower than 10 µg/mL
[4]
  Cytotoxicity against Vero Cells IC50: > 200 µg/mL
[3]; LORA MIC relative to MABA MIC
  Ratio of non-replicating MIC (LORA) over replicating MIC (MABA): only two-fold higher
[3]
  MIC against M. tuberculosis H37Rv, LORA: 1.4 µg/mL

## NNC(=O)c1ccncc1 [Isoniazid, reference compound]
[1]; [6]
  MIC: 0.03 µg/mL (≈ 0.219 µM)
[3]
  MIC: > 18 µg/mL

## CC(=O)OC/C=C/CC/C=C/COC(C)=O [Compound 6, (2E,6E)-1,8-diacetoxy-2,6-octadiene]
[1]; [6]
  MIC: 26.1 µg/mL (≈ 115 µM)
[1]; […]
  MIC: > 20 µg/mL
[2]; Vero cells (ATCC CRL-1586)
  IC50 at 72 h: 76.8 µg/mL (≈ 339 µM)
[3]
  MIC: > 100 µg/mL

## C=C[C@](C)(O)CC/C=C(\C)CCC=C(C)C [Compound 12, (3R)-(E)-nerolidol]
[1]; [6]
  MIC: > 100 µg/mL
[3]
  MIC: > 100 µg/mL

## CCCCCCC/C=C/C(O)C(C)=O (stereo not drawn) [Compound 8, (E)-1-acetyl-2-decene-1-ol]
[1]; [6]
  MIC: > 100 µg/mL
[3]
  MIC: > 100 µg/mL

## CC(C)=CCC/C(C)=C/CO [Compound 10, geraniol]
[1]; […]
  MIC: > 100 µg/mL
[3]
  MIC: > 100 µg/mL

## CC(=O)NC[C@H]1CN(c2ccc(N3CCOCC3)c(F)c2)C(=O)O1 [Linezolid, reference compound]
[1]; [6]
  MIC: 0.16 µg/mL (≈ 0.474 µM)
[3]
  MIC: 0.62 µg/mL (≈ 1.84 µM)

Reference: publication PMC9823811, “Anti-Microbial Activity of Aliphatic Alcohols from Chinese Black Cardamom (Amomum tsao-ko) against Mycobacterium tuberculosis H37Rv” (Plants, 2022)
